Read-outs that look alike come from different tables or passages of the source.
Tests used:
Type in all cases: cell-based
[1] = target: T1, Toll-like receptor 4 (TLR4) (Homo sapiens, UniProt O00206); experiment: TLR4 activity: NF-κB-inducible SEAP reporter in LPS-stimulated TLR4-expressing HEK293 cells; conditions: for inhibition at 100 µM: Test Con. 100 μM; for inhibition at 100 µM / inhibition at 10 µM / inhibition at 20 µM: LPS 10 ng/ml, 16-24 hours, HEK293 cells expressing TLR4, read-out: TLR-4 inhibition (%) mean; for activity towards TLR-4 (in words): summary of Table 1 (10, 20 or 100 μM); for inhibition at 10 µM: Test Con. 10 μM; for inhibition at 20 µM: Test Con. 20 μM
T1 construct: expressed in transfected cells; host or cells: HEK293 cells engineered to express TLR4
T1 sequence (O00206 24-839, species assumed): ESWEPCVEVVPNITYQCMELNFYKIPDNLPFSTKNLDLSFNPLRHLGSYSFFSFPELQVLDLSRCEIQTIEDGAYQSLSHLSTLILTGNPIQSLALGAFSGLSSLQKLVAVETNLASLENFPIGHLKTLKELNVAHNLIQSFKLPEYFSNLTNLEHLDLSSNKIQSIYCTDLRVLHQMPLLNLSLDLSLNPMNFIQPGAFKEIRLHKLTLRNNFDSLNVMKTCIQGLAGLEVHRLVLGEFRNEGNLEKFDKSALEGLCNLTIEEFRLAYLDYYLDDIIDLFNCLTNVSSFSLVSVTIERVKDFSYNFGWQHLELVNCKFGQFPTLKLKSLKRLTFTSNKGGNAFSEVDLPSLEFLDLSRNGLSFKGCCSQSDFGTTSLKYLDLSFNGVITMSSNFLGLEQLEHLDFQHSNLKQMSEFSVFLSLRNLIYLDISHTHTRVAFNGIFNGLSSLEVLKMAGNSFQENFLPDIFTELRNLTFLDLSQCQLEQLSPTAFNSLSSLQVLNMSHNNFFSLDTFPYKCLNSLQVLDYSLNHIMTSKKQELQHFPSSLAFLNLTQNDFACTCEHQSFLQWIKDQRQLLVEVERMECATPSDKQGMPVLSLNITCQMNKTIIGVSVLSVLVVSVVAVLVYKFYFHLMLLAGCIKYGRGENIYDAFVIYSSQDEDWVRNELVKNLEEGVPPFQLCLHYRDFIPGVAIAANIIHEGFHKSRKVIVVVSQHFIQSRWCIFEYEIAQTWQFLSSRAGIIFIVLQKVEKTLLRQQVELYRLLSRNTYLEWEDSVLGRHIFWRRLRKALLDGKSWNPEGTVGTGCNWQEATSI
T1 sequence (Q9Y6Y9 17-160 partner limits assumed, species assumed): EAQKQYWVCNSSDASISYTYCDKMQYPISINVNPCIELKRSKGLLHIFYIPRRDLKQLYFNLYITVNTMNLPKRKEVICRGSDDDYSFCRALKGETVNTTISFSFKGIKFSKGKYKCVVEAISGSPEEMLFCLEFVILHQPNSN
Description: Stimulation of the Toll-like receptor 4 (TLR4) was determined by assessing activation of the transcription factor NF-κB in HEK293 cells that were engineered to express TLR4. Assessment of TLR4 stimulation was based on the use of an NE-κB-inducible secreted alkaline phosphatase (SEAP) reporter system in which the SEAP reporter was under the control of a promoter inducible by NF-κB. Thus, the degree of activation of TLR4 can be indirectly quantified spectrophotometrically by measuring the amount of the SEAP reporter that is produced.
The TLR4-expressing cells were plated in HEK-Blue Detection (Invivogen, San Diego, Calif.) medium in a 96-well plate (25,000-50,000 cells/well). The cells were stimulated with lipopolysaccharides (LPS) alone or in combination with the compound of Example 1. Cell culture without LPS and the compound of Example 1 was defined as baseline control. To test whether the compound of Example 1 could block that activation of the TLR4, the cells were treated with the designated compound (10, 20 or 100 μM) and LPS (final conc. 10 ng/ml/well). After an incubation period (16-24 hours) at 37° C. in a CO2 incubator, the signals of individual samples in 96-well plates were detected at O.D.650 nm with a Molecular Devices SpectraMax i3 Imaging Cytometer. The TLR4 activity was expressed in percentage of LPS alone-stimulated cells minus baseline control.

[2] = tested on: mTNF-α secretion from LPS-stimulated RAW264.7 monocytes; experiment: LPS induced mTNF-α release from RAW264.7 cells (ELISA); conditions: Mus musculus
Description: To confirm whether the inhibitory effect of the selected compounds of example 2.1 (i.e., Compounds 12, 15, 19, 20, 22, 24, 28, 30, 32, 34, 36, 38, 40, 42, 44, 45, 49, 50, 52 and 70) translates to anti-inflammation, they were further tested to see if any of them may suppress mTNF-α secretion from lipopolysaccharide (LPS)-stimulated RAW264.7 monocytes.
To this purpose, RAW264.7 cells were seeded at 1.6×10^5 cells/well into 96-well culture plates. Test compounds (i.e., Compounds 12, 15, 19, 20, 22, 24, 28, 30, 32, 34, 36, 38, 40, 42, 44, 45, 49, 50, 52 and 70, respectively at 10 μM) were added into the culture plates in triplicate and co-cultured at 37° C. in 5% CO2 for 30 minutes. LPS (final conc. 10 ng/ml/well) was then added into the culture plates and the cells were incubated for another 4 hours. At the end of culture, the cultured media were harvested for mTNF-α quantification by ELISA with commercial assay kits (R&D Systems, Minneapolis, Minn.) following the manufacturer's protocol. Signals of the individual samples in 96-well plates were detected at O.D.450 nm/570 nm with a Molecular Devices SpectraMax i3 Imaging Cytometer. The mTNF-α activity was expressed in percentage of viable LPS-stimulated cells without test compound treatment.

RAW264.7 cells = experiment: Cell viability (MTT) of RAW264.7 cells; conditions: for Cell Viability (%) mean: Test Con. 10 μM, MTT, RAW264.7 cells, percentage of viable LPS-stimulated cells; for toxic activity toward RAW264.7 cells (in words): Table 2, 10 μM
Description: (§1) RAW264.7 cells (1.6×10^5 cells/well) or HEK 293 cells (2.5-5.0×10^4 cells/well) were seeded in 96-well plate overnight and treated with different compounds for 16-24 hours. Cells' growth were determined by MTT-based colorimetric assays. Viability of the test cells treated with vehicle (0.5% DMSO) only was defined as 100% viable. Survival of cells after treatment with DETDs was calculated using the following formula: viable cell number (%)=OD570 (treated cell culture)/OD570 (vehicle control)×100.
(§2) The cell viability assay was performed by the MTT method, in which cells were incubated with 45 μl of 5 mg/ml MTT for 1 hour at 37° C., and 150 μl of DMSO was added at the end of culture to dissolve the crystals. The signals of individual samples in 96-well plates were detected at O.D.570 nm with a Molecular Devices SpectraMax i3 Imaging Cytometer. Cell viability was expressed in percentage of viable LPS-stimulated cells.

HEK293 cells = experiment: Cell viability (MTT) of the TLR4-expressing HEK293 cells; conditions: percentage of viable LPS-stimulated cells
Description: as §1
as §2, with “method. Cells” for “method, in which cells”

[3] = RAW264.7, Table 2, 10 μM, read-out: inhibition of LPS induced mTNF-α release from RAW264.7 cells
[4] = Test Con. 10 μM, LPS 10 ng/ml, 4 hours, RAW264.7 cells, read-out: mTNF-α inhibition (%) mean

Compound | inhibition at 100 µM [1] | activity towards TLR-4 (in words) [1] | inhibition at 10 µM [1] | inhibition at 20 µM [1] | inhibition at 10 µM [2, 3] | inhibition at 10 µM [2, 4] | Cell Viability (%) mean (RAW264.7 cells) | Cell Viability (%) mean (HEK293 cells; Test Con. 10 μM) | Cell Viability (%) mean (HEK293 cells; Test Con. 20 μM) | toxic activity toward RAW264.7 cells (in words) (RAW264.7 cells)
COC(=O)C1=CCN(CC(=O)Nc2ccc(F)cc2)CC1 [Compound 3] | 6.8% | mild or negligible activity | – | – | – | – | – | – | – | –
C=CC(=O)N1CCCc2cccc(S(=O)(=O)Nc3ccc(F)cc3F)c21 [Compound 15] | – | strong antagonist | 100% | – | 85 to 100% | 94.7% | 52.4% | 84.1% | – | –
O=S(=O)(Nc1ccc(F)cc1Cl)c1cccc2c1N(S(=O)(=O)CCl)CCC2 [Compound 16] | – | mild or negligible activity | – | 18% | – | – | – | – | 96.5% | –
C=CC(=O)N(c1ccc(F)cc1Cl)S(=O)(=O)c1ccccc1 [Compound 19] | – | strong antagonist | 100% | – | 85 to 100% | 96.1% | 38.1% | 80% | – | –
C=C(C)C(=O)N(c1ccc(F)cc1Cl)S(=O)(=O)c1ccccc1 [Compound 20] | – | moderate inhibitory activity | 60.1% | – | ~70% | 70.9% | 100.0% | 90.4% | – | negligible to no toxic activity
C=CC(=O)N(c1ccc(F)cc1Cl)S(=O)(=O)c1ccccc1[N+](=O)[O-] [Compound 22] | – | moderate inhibitory activity | 63% | – | ~40% | 45.7% | 96.4% | 109.9% | – | negligible to no toxic activity
C=CC(=O)N(c1ccc(F)cc1Cl)S(=O)(=O)c1ccccc1C(=O)OC [Compound 24] | – | strong antagonist | 100% | – | 85 to 100% | 96% | 54.5% | 88.5% | – | –
C=CC(=O)N(c1ccc(F)cc1Cl)S(=O)(=O)c1ccccc1OC(F)(F)F [Compound 26] | – | mild or negligible activity | 10.7% | – | – | – | – | 86.8% | – | –
C=CC(=O)N(c1ccc(F)cc1Cl)S(=O)(=O)c1ccc(F)cc1Cl [Compound 30] | – | strong antagonist | 94.8% | – | 85 to 100% | 82.9% | 99.7% | 94.0% | – | negligible to no toxic activity

The next lines start with results.

inhibition at 100 µM [1] | activity towards TLR-4 (in words) [1] | inhibition at 10 µM [1] | inhibition at 20 µM [1] | Compound | inhibition at 10 µM [2, 3] | inhibition at 10 µM [2, 4] | Cell Viability (%) mean (RAW264.7 cells) | Cell Viability (%) mean (HEK293 cells; Test Con. 10 μM) | Cell Viability (%) mean (HEK293 cells; Test Con. 20 μM) | toxic activity toward RAW264.7 cells (in words) (RAW264.7 cells)
17.8% | mild or negligible activity | – | – | C=CC(=O)N1CCN(CC(=O)Nc2ccc(F)cc2)CC1 [Compound 6] | – | – | – | – | – | –
– | strong antagonist | 98.9% | – | C=CC(=O)N1CCCc2cccc(S(=O)(=O)Nc3ccc(F)cc3Cl)c21 [Compound 12] | 85 to 100% | 100% | 25.5% | 72% | – | –
– | mild or negligible activity | – | 10.9% | C/C=C/C(=O)N1CCCc2cccc(S(=O)(=O)Nc3ccc(F)cc3Cl)c21 [Compound 13] | – | – | – | – | 86.6% | –
– | mild or negligible activity | 17.5% | – | C=CC(=O)N1CCCC[C@H]1C(=O)N(C)c1ccc(F)cc1Cl [Compound 57] | – | – | – | 95.9% | – | –
– | mild or negligible activity | 3.7% | – | C=CC(=O)N1CCC[C@H]1C(=O)Nc1ccc(F)cc1Cl [Compound 61] | – | – | – | 93.4% | – | –
– | mild or negligible activity | 15.8% | – | C=CC(=O)N1CCC[C@@H]1C(=O)Nc1ccc(F)cc1Cl [Compound 65] | – | – | – | 100.5% | – | –

— patent US20200247761A1, “SULFONAMIDE OR AMIDE COMPOUNDS, COMPOSITIONS AND METHODS FOR THE PROPHYLAXIS AND/OR TREATMENT OF AUTOIMMUNE, INFLAMMATION OR INFECTION RELATED DISORDERS” (TAIWANJ PHARMACEUTICALS CO., LTD, priority 2017, published 2020)
